Source: publication PMC3344887 (PLoS ONE, 2012)
Read-outs that look alike come from different tables or passages of the source.

Assays:
NET [1] = biological target: T1, NET (Homo sapiens, UniProt P23975); details: % of plasma sample dilution, undiluted plasma = 100%; plasma 120 min after MDMA/placebo; mean±SEM
healthy subjects [2] = assay: Adjective Mood Rating Scale (AMRS), clinical study; type: in vivo, humans; details: peak change from baseline, mean±SEM, 16 subjects
Protocol: (§1) The washout periods between the sessions were at least 10 days long.
(§2) Identical placebo (lactose) capsules were prepared. […] Drugs were administered without food.
(§3) The psychometric measures included Visual Analog Scales (VAS), [10], the Adjective Mood Rating Scale (AMRS), and 5-Dimensions of Altered States of Consciousness (5D-ASC), [23]. […] The VASs were presented as 100 mm horizontal lines marked “not at all" on the left and “extremely" on the right. The VASs for “closeness to others," “open," and “talkative" were bidirectional (±50 mm). The VASs were administered 4 h before and 0, 0.33, 1, 1.5, 2, 2.5, 3, 3.5, 4, and 5 h after MDMA or placebo administration. […] The AMRS contains subscales for activity, extroversion and introversion, well-being, emotional excitation, anxiety-depression, and dreaminess. The 5D-ASC rating scale measures alterations in mood, perception, experience of self in relation to the environment, and thought disorder. The 5D-ASC rating scale comprises five subscales or dimensions and 11 lower-order scales. The 5D-ASC dimension “oceanic boundlessness" (OB, 27 items) measures derealization and depersonalization associated with positive emotional states, ranging from heightened mood to euphoric exaltation. […] The global ASC score was determined by adding the OB, AED, and VR scores. The 5D-ASC scale was administered 4 h after MDMA or placebo administration.
(§4) Clinical data values were transformed to differences from baseline. Peak effects (Emax) were determined for repeated measures. Emax values were compared using General Linear Models repeated-measures analysis of variance, with drug as within-subject factor, using Statistica 6.0 software (StatSoft, Tulsa, OK). Tukey post hoc comparisons were performed based on significant main effects of treatment. Additional analyses of variance were performed, with period as factor to exclude period effects. Correlation analyses were performed using Pearson’s correlations. The criterion for significance was p<0.05. Mean arterial pressure (MAP) was calculated from diastolic blood pressure and systolic blood pressure using the following formula: MAP = DBP+(SBP - DBP)/3.

DAT [3] = biological target: T2, DAT (Homo sapiens, UniProt Q01959); assay: Radioligand binding, [3H]-WIN35,428, HEK 293 membranes; parameters: expressed in transfected cells; host or cells: HEK 293 cells (Invitrogen), stably transfected
NET [4] = biological target: T1, NET; assay: Radioligand binding, [3H]-nisoxetine, HEK 293 membranes; parameters: expressed in transfected cells; host or cells: HEK 293 cells (Invitrogen), stably transfected
healthy subjects [5] = assay: 5-Dimensions of Altered States of Consciousness (5D-ASC), clinical study; type: in vivo, humans; details: placebo-placebo vs placebo-MDMA
Protocol: as §1, §2, §3

DAT [6] = biological target: T2, DAT; details: % of plasma sample dilution, undiluted plasma = 100%; plasma 120 min after MDMA/placebo
DAT [7] = biological target: T2, DAT; assay: cell-based
SERT = SERT (Homo sapiens, UniProt P31645); details: % of plasma sample dilution, undiluted plasma = 100%; plasma 120 min after MDMA/placebo; mean±SEM
healthy subjects [8] = assay: Circulating plasma catecholamines, clinical study; type: in vivo, humans; details: peak change from baseline, mean±SEM, 16 subjects
Protocol: as §1, §2
(§5) Plasma concentrations of copeptin were also determined in this study as reported elsewhere. […] No hydrolysis was performed. Thus, the values for HMMA represent the drug concentrations of the non-conjugated metabolite. All blood samples were collected on ice and centrifuged within 10 min at 4°C. The plasma was then stored at –20°C until the analysis.

[9] = parameters: method as in earlier work; details: cited from earlier work
[10] = cited from earlier work
healthy subjects [11] = assay: Visual Analog Scales, subjective drug effects, clinical study; type: in vivo, humans
Protocol: as §1, §2, §3, §4

clinical = details: human, in vivo
Protocol: as §2, §5
Cmax and tmax were obtained directly from the observed concentration-time curves. […] Terminal elimination half-life (t 1/2) was calculated using λz and the equation t1/2 = ln2/λz. The area under the plasma concentration-time curve up to 6 h (AUC0-6h) was calculated using the linear trapezoidal rule. The AUC0–∞ was determined by extrapolation of AUC0–6h using λz. The PK parameters were determined using the PK functions for Excel (Microsoft, Redmont, CA, USA). Plasma concentrations were only determined up to 6 h after MDMA administration because the aim of the study was to assess potential changes in MDMA plasma levels while relevant pharmacodynamic effects or MDMA were present.

healthy subjects [12] = assay: Physiologic measures (blood pressure, heart rate, body temperature), clinical study; type: in vivo, humans; details: peak change from baseline, mean±SEM, 16 subjects
Protocol: as §1, §2
Physiologic measures were assessed repeatedly 4, 3, 2, and 1 h before and 0, 0.33, 0.66, 1, 1.5, 2, 2.5, 3, 4, 5, and 6 h after MDMA or placebo administration. Heart rate, systolic blood pressure, and diastolic blood pressure were measured using an OMRON M7 blood pressure monitor (OMRON Healthcare Europe, Hoofddorp, The Netherlands). Measures were taken twice per time point with an interval of 1 min, and the average was used for the analysis. Core (tympanic) temperature was assessed using a GENIUS 2 ear thermometer (Tyco Healthcare Group, Watertown, NY). […] Adverse effects were assessed using the List of Complaints (LC), which consists of 66 items that yield a total adverse effects score and reliably measure physical and general discomfort.
as §4

[13] = peak change from baseline, mean±SEM, 16 subjects

T2 sequence (Q01959 whole entry): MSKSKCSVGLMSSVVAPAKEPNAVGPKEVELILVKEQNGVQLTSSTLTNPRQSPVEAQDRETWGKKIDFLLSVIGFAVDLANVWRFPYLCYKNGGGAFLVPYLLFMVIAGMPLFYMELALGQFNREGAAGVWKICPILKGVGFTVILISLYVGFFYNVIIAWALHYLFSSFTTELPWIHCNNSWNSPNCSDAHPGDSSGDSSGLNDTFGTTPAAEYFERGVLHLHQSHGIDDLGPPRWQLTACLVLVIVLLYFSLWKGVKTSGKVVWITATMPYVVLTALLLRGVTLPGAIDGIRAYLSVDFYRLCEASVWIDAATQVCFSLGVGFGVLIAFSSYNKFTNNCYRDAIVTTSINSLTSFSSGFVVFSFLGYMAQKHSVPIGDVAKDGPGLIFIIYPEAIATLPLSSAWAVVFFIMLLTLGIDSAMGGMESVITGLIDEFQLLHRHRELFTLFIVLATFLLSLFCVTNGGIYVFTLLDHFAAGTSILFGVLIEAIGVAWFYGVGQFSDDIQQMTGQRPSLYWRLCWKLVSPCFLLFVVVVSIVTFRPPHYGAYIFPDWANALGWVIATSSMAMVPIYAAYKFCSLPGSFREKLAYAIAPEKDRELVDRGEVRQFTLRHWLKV
T1 sequence (P23975 whole entry): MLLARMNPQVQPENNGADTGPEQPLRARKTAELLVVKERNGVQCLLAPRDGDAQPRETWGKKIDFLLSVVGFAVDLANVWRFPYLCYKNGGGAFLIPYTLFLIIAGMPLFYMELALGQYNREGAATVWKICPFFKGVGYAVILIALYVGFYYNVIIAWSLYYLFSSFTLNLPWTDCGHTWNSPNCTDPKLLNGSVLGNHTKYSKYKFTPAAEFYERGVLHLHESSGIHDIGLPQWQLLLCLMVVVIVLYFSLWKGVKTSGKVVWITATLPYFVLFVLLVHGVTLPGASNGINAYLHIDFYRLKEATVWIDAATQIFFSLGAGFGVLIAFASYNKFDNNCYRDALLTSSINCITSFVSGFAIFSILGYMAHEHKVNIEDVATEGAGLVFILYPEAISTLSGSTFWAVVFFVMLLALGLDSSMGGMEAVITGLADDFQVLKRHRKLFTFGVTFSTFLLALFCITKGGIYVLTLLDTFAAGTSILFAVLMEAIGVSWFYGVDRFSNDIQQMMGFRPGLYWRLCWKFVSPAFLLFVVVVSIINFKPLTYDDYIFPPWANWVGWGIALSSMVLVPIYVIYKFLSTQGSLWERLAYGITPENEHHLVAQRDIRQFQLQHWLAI
Sequence of SERT (P31645 whole entry): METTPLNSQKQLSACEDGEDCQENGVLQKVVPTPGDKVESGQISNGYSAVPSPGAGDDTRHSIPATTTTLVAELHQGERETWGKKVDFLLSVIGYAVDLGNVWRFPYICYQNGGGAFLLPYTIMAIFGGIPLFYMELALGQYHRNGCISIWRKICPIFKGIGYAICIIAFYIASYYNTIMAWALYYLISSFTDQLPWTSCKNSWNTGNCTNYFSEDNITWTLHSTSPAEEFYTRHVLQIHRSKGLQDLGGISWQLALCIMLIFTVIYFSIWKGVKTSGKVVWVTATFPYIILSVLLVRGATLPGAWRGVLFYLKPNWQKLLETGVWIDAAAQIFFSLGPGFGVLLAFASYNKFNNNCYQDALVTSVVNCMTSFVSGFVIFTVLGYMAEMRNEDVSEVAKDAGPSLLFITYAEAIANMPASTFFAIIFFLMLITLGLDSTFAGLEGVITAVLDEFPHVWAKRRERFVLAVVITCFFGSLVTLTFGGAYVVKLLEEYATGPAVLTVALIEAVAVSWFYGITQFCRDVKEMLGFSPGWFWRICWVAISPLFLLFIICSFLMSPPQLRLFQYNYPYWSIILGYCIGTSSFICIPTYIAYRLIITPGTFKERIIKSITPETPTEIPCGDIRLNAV

## CNC(C)Cc1ccc2c(c1)OCO2 (stereo not shown) [MDMA, 3,4-methylenedioxymethamphetamine]
NET [1]
  Ex vivo binding (IC50%) NET: 23.4±0.7%
Healthy subjects [2]
  AMRS Activity, Emin: −4.69±1.04
  AMRS Dreaminess, Emax: 2.94±0.66
  AMRS Emotional excitation, Emax: 4.94±0.97
  AMRS Extroversion, Emax: 3.50±0.61
  AMRS Introversion, Emax: 2.62±0.65
  AMRS Well-being, Emax: 7.06±1.01
DAT [3]
  Ki: 6.52 ± 2.24 µM
NET [4]
  Ki: 22.4 ± 14.6 µM
Healthy subjects [5]
  Effect on ASC sum score, OB, AED and VR dimensions: significantly increased
DAT [6]
  Ex vivo binding (IC50%) DAT: >25%
DAT [7]
  Ki: 16.7 µM
SERT
  Ex vivo binding (IC50%) SERT: >25%
Healthy subjects [8]
  Circulating Epinephrine, Emax: 0.50 ± 0.12 nM
  Circulating Norepinephrine, Emax: 0.44 ± 0.12 nM
[9]
  Mean duration of subjective and cardiovascular effects: 3.5 h
  Time within which effects completely subside: 5 to 6 h
[10]; 100 -125 mg dose
  T1/2: 8 to 9 h
[10]; pretreatment with paroxetine
  Increase of MDMA plasma levels: 30%
[10]; single dose
  Tmax: 2 to 2.4 h
Healthy subjects [11]; after drug administration
  Observed time to half-maximal subjective drug effect: 44 ± 4 min
Healthy subjects [11]; [13]
  VAS Any drug effect, Emax: 86.69±3.57
  VAS Closeness, Emax: 27.31±3.87
  VAS Drug high, Emax: 87.81±4.85
  VAS Drug liking, Emax: 90.69±4.82
  VAS Good drug effect, Emax: 89.38±4.67
  VAS Open, Emax: 32.16±4.29
  VAS Stimulated, Emax: 76.31±6.84
  VAS Talkative, Emax: 28.81±5.12
clinical
  Cmax: 254 ± 13.6 ng/mL
  Tmax: 2.66 ± 0.29 h
clinical; 125 mg
  Cmax: 221 ± 11.6 ng/mL
clinical; AUC0-6
  AUC(0-t): 1110 ± 57.2 ng·h/mL
clinical; AUC0-6, Placebo-MDMA session, mean±SEM, n=16
  AUC(0-t): 953 ± 45.9 ng·h/mL
clinical; AUC(0-∞)
  AUC(0-inf): 2910 ± 276 ng·h/mL
clinical; T1/2
  half-life: 7.14 ± 0.4 h
clinical; T1/2, Placebo-MDMA session, mean±SEM, n=16
  half-life: 8.17 ± 0.74 h
clinical; Placebo-MDMA session, mean±SEM, n=16
  Tmax: 2.34 ± 0.19 h
Healthy subjects [12]; diastolic blood pressure
  DPB, Emax: 22.13±2.08 mm Hg
Healthy subjects [12]; mean arterial pressure
  MAP, Emax: 21.76±2.73 mm Hg
Healthy subjects [12]
  Heart rate, Emax: 26.06±2.77 beats/min
Healthy subjects [12]; systolic blood pressure
  SBP, Emax: 29.94±3.41 mm Hg
Healthy subjects [12]; tympanic
  Body temperature, Emax: 0.54±0.07 °C
